Among the data in PubChem BioAssay AID624281 (Broad Institute, 2012) are AC40 and luminescence activation values, retold here.

Active and inactive are the calls of the source. No rule for the calls is given here. Bounds are passed on as bounds.

For one experiment, the system named is V. cholerae DH231 (ΔcqsS ΔluxS) lux bioluminescence, 6 h. The experiment is described as follows: Confirmatory dose response, inducers of lux bioluminescence, V. cholerae DH231 δcqsS δluxS (AID 624281).
Settings: not given
Take `O=C(Nc1nnc(-c2ccc3c(c2)OCCO3)o1)C1CCCCC1`: the AC40 is 883 nM.

Consider `Cc1ccc2cc3c(NC(=O)c4ccco4)nn(C)c3nc2c1`, for which the AC40 is 2030 nM.

As to `COc1ccccc1NC(=O)COC(=O)c1cc2c(s1)CCC2`, the AC40 was > 35000 nM (inactive).

Test system in another experiment: not listed separately
The experiment is described as above. Conditions: V. cholerae DH231 (ΔcqsS ΔluxS) lux bioluminescence, 6 h; at 35 µM (top of the series).
Consider `Cc1ccc(OCCNC(=O)c2cccc(C)c2)cc1`, for which the luminescence activation is -33.1% (inactive).

In the case of `COc1ccccc1NC(=O)COC(=O)c1oc2ccccc2c1C`, the luminescence activation was -6.24% (inactive).

Regarding `COc1ccc(Cl)cc1NC(=O)COC(=O)c1ccc(C)o1`, the luminescence activation was -3.04% (inactive).

On to `CCCn1nnnc1NCc1ccc(N2CCCC2)cc1`, for which the luminescence activation was -14% (inactive).

With `CCn1nnnc1NCc1ccc(N2CCCC2)cc1`, the luminescence activation is -52.4% (inactive).

Regarding `CCCn1nnnc1NCc1ccccc1Cl`, the luminescence activation is -4.59% (inactive).

With `CCCn1nnnc1NCc1ccc(C(C)C)cc1`, the luminescence activation was -30.3% (inactive).

As for `O=c1ncn(-c2cccc(Cl)c2)c2ccccc12`, the luminescence activation is 14.1% (inactive).

Turning to `Cc1ccc(CC(=O)NC2CCCC2)cc1`, the luminescence activation was 0.807% (inactive).

As to `CCn1nnc(NCc2ccc(C)cc2)n1`, the luminescence activation is 4.08% (inactive).

For `CCOc1ccc(Nc2ccc3nonc3c2[N+](=O)[O-])cc1`, the luminescence activation was -40.9% (inactive).

Consider `CCC(C)NC(=O)Cc1ccc(-c2ccccc2)cc1` (stereo not given), for which the luminescence activation was -15.3% (inactive).

Take `CCn1c(CC(=O)Nc2cccc(Cl)c2Cl)nnc1SCCOc1ccc(OC)cc1`: the luminescence activation is -63.2% (inactive).

In the case of `CCCn1nnnc1NCc1ccc(N(CC)CC)cc1`, the luminescence activation was -19.9% (inactive).

Take `Cc1c(Cl)cccc1-n1cnc(=O)c2ccccc21`: the luminescence activation is -4.11% (inactive).

Regarding `O=C(Cc1ccc(-c2ccccc2)cc1)NC1CCCC1`, the luminescence activation was -8.42% (inactive).

As to `COc1ccccc1NC(=O)COC(=O)c1ccc(C)cc1`, the luminescence activation is 8.61% (inactive).
